# Source: PMC9154192 (PLoS Biology, 2022)
# Where two headings read alike, the source gives them in different places. Marks after values point to notes of the source that are not given here.
# Type: in vivo, SD rats
# Method: Toxicity studies were conducted at Biotoxtech (Korea) under review and approval from IACUC (170842, 180144, 170889) of Biotoxtech. All animals used in the toxicity test were purchased from OrientBio (Korea).
# A subchronic toxicity study was performed for PP2S. Female and male rats were divided into a control group (0 mg/kg/day, n = 15), a low-dose group (167 mg/kg/day, n = 10), a medium-dose group (500 mg/kg/day, n = 10), and a high-dose group (1,500 mg/kg/day, n = 15), respectively. Thus, there were a total of 8 groups. The drug was administered by oral gavage at 10 mL/kg body weight daily for 4 weeks. Five animals each in the control and high-dose groups continued their treatments for 2 more weeks. Clinical symptoms were observed, and body weight was measured during the test period for a total of 6 weeks; 0.5% methyl cellulose 1,500 cP (Sigma, USA) in water for injection (JW Pharmaceutical, Korea) was used as a vehicle. Control animals were treated with only the same volume of the vehicle.
# Organ weights were measured while conducting a 4-week repeated oral toxicity study for PP2S. For all animals, wet weight of the following organs were measured, and the relative organ weight ratio to the fasted body weight was calculated. Organs with left and right sides were weighed together. […] In addition, changes observed with statistical significance in females of the recovery group were minor changes, which were not observed in the main test group. They were not accompanied by other related changes. Thus, they were judged to have no toxicological significance.
# [1] = female, 167 mg/kg, dosing period
# [2] = female, 500 mg/kg, dosing period
# [3] = female, 1,500 mg/kg, dosing period
# [4] = female, 1,500 mg/kg, recovery period
# [5] = male, 1,500 mg/kg, dosing period
# [6] = male, 1,500 mg/kg, recovery period
# [7] = up to 1,500 mg/kg/day oral, 4 weeks of administration and 2 weeks of recovery
compound,measurement,setting,value
"CCCCOc1ccc2cc(CN3C(=O)CC[C@H]3C(=O)OC)c3cc(OC)c(OC)cc3c2c1 [PP2S, Methyl (S)-1-((3-butoxy-6,7-dimethoxyphenanthren-9-yl)methyl)-5-oxopyrrolidine-2-carboxylate]",effect on organ weights,"all administration groups, male and female, main test and recovery group",effect of the test substance was not recognized
same,B.W. (mean),[1],218.0 g
same,"Mean absolute organ weight, Adrenal",[1],0.0775 g
same,"Mean absolute organ weight, Heart",[1],0.87 g
same,"Mean absolute organ weight, Kidney",[1],1.77 g
same,"Mean absolute organ weight, Liver",[1],6.63 g
same,"Mean absolute organ weight, Lung",[1],1.09 g
same,"Mean absolute organ weight, Ovary",[1],0.0898 g
same,"Mean absolute organ weight, Pituitary",[1],0.0140 g
same,"Mean absolute organ weight, Spleen",[1],0.50 g
same,"Mean absolute organ weight, Uterus",[1],0.52 g
same,"Mean relative organ weight, Adrenal",[1],0.0357 g/100g body weight
same,"Mean relative organ weight, Brain",[1],0.83 g/100g body weight
same,"Mean relative organ weight, Heart",[1],0.40 g/100g body weight
same,"Mean relative organ weight, Kidney",[1],0.81 g/100g body weight
same,"Mean relative organ weight, Liver",[1],3.05 g/100g body weight
same,"Mean relative organ weight, Lung",[1],0.50 g/100g body weight
same,"Mean relative organ weight, Ovary",[1],0.0410 g/100g body weight
same,"Mean relative organ weight, Pituitary",[1],0.0065 g/100g body weight
same,"Mean relative organ weight, Spleen",[1],0.23 g/100g body weight
same,"Mean relative organ weight, Uterus",[1],0.24 g/100g body weight
same,B.W. (mean),[2],224.1 g
same,"Mean absolute organ weight, Adrenal",[2],0.0755 g
same,"Mean absolute organ weight, Heart",[2],0.89 g
same,"Mean absolute organ weight, Kidney",[2],1.70 g
same,"Mean absolute organ weight, Liver",[2],6.67 g
same,"Mean absolute organ weight, Lung",[2],1.10 g
same,"Mean absolute organ weight, Ovary",[2],0.0846 g
same,"Mean absolute organ weight, Pituitary",[2],0.0139 g
same,"Mean absolute organ weight, Spleen",[2],0.47 g
same,"Mean absolute organ weight, Uterus",[2],0.53 g
same,"Mean relative organ weight, Adrenal",[2],0.0337 g/100g body weight
same,"Mean relative organ weight, Brain",[2],0.78 g/100g body weight
same,"Mean relative organ weight, Heart",[2],0.40 g/100g body weight
same,"Mean relative organ weight, Kidney",[2],0.76 g/100g body weight
same,"Mean relative organ weight, Liver",[2],2.97 g/100g body weight
same,"Mean relative organ weight, Lung",[2],0.49 g/100g body weight
same,"Mean relative organ weight, Ovary",[2],0.0381 g/100g body weight
same,"Mean relative organ weight, Pituitary",[2],0.0062 g/100g body weight
same,"Mean relative organ weight, Spleen",[2],0.21 g/100g body weight
same,"Mean relative organ weight, Uterus",[2],0.24 g/100g body weight
same,B.W. (mean),[3],217.3 g
same,"Mean absolute organ weight, Adrenal",[3],0.0730 g
same,"Mean absolute organ weight, Brain",[3],1.86 g
same,"Mean absolute organ weight, Heart",[3],0.84 g
same,"Mean absolute organ weight, Kidney",[3],1.72 g
same,"Mean absolute organ weight, Liver",[3],6.49 g
same,"Mean absolute organ weight, Lung",[3],1.11 g
same,"Mean absolute organ weight, Ovary",[3],0.0874 g
same,"Mean absolute organ weight, Pituitary",[3],0.0139 g
same,"Mean absolute organ weight, Spleen",[3],0.48 g
same,"Mean absolute organ weight, Uterus",[3],0.47 g
same,"Mean relative organ weight, Adrenal",[3],0.0335 g/100g body weight
same,"Mean relative organ weight, Brain",[3],0.84 g/100g body weight
same,"Mean relative organ weight, Heart",[3],0.38 g/100g body weight
same,"Mean relative organ weight, Kidney",[3],0.79 g/100g body weight
same,"Mean relative organ weight, Liver",[3],2.98 g/100g body weight
same,"Mean relative organ weight, Lung",[3],0.51 g/100g body weight
same,"Mean relative organ weight, Ovary",[3],0.0402 g/100g body weight
same,"Mean relative organ weight, Pituitary",[3],0.0064 g/100g body weight
same,"Mean relative organ weight, Spleen",[3],0.22 g/100g body weight
same,"Mean relative organ weight, Uterus",[3],0.22 g/100g body weight
same,B.W. (mean),[4],248.7 g
same,"Mean absolute organ weight, Adrenal",[4],0.0723 g
same,"Mean absolute organ weight, Brain",[4],1.86 g
same,"Mean absolute organ weight, Heart",[4],0.91 g
same,"Mean absolute organ weight, Kidney",[4],1.73 g
same,"Mean absolute organ weight, Liver",[4],7.01 * g
same,"Mean absolute organ weight, Lung",[4],1.17 * g
same,"Mean absolute organ weight, Ovary",[4],0.1012 g
same,"Mean absolute organ weight, Pituitary",[4],0.0154 g
same,"Mean absolute organ weight, Spleen",[4],0.54 g
same,"Mean absolute organ weight, Uterus",[4],0.54 g
same,"Mean relative organ weight, Adrenal",[4],0.0291 g/100g body weight
same,"Mean relative organ weight, Brain",[4],0.75 g/100g body weight
same,"Mean relative organ weight, Heart",[4],0.37 g/100g body weight
same,"Mean relative organ weight, Kidney",[4],0.69 g/100g body weight
same,"Mean relative organ weight, Liver",[4],2.81 g/100g body weight
same,"Mean relative organ weight, Lung",[4],0.48 g/100g body weight
same,"Mean relative organ weight, Ovary",[4],0.0407 g/100g body weight
same,"Mean relative organ weight, Pituitary",[4],0.0062 g/100g body weight
same,"Mean relative organ weight, Spleen",[4],0.22 g/100g body weight
same,"Mean relative organ weight, Uterus",[4],0.22 g/100g body weight
same,B.W. (mean),"male, 167 mg/kg, dosing period",363.4 g
same,"Mean absolute organ weight, Adrenal","male, 167 mg/kg, dosing period",0.0619 g
same,"Mean absolute organ weight, Brain","male, 167 mg/kg, dosing period",1.79 g
same,"Mean absolute organ weight, Heart","male, 167 mg/kg, dosing period",1.33 g
same,"Mean absolute organ weight, Kidney","male, 167 mg/kg, dosing period",2.59 g
same,"Mean absolute organ weight, Liver","male, 167 mg/kg, dosing period",10.38 g
same,"Mean absolute organ weight, Lung","male, 167 mg/kg, dosing period",1.42 g
same,"Mean absolute organ weight, Pituitary","male, 167 mg/kg, dosing period",0.0109 g
same,"Mean absolute organ weight, Prostate","male, 167 mg/kg, dosing period",0.40 g
same,"Mean absolute organ weight, Spleen","male, 167 mg/kg, dosing period",0.69 g
same,"Mean absolute organ weight, Testis","male, 167 mg/kg, dosing period",3.22 g
same,"Mean relative organ weight, Adrenal","male, 167 mg/kg, dosing period",0.0170 g/100g body weight
same,"Mean relative organ weight, Brain","male, 167 mg/kg, dosing period",0.54 g/100g body weight
same,"Mean relative organ weight, Heart","male, 167 mg/kg, dosing period",0.37 g/100g body weight
same,"Mean relative organ weight, Kidney","male, 167 mg/kg, dosing period",0.72 g/100g body weight
same,"Mean relative organ weight, Liver","male, 167 mg/kg, dosing period",2.86 g/100g body weight
same,"Mean relative organ weight, Lung","male, 167 mg/kg, dosing period",0.39 g/100g body weight
same,"Mean relative organ weight, Pituitary","male, 167 mg/kg, dosing period",0.0030 g/100g body weight
same,"Mean relative organ weight, Prostate","male, 167 mg/kg, dosing period",0.11 g/100g body weight
same,"Mean relative organ weight, Spleen","male, 167 mg/kg, dosing period",0.19 g/100g body weight
same,"Mean relative organ weight, Testis","male, 167 mg/kg, dosing period",0.89 g/100g body weight
same,B.W. (mean),"male, 500 mg/kg, dosing period",363.5 g
same,"Mean absolute organ weight, Adrenal","male, 500 mg/kg, dosing period",0.0622 g
same,"Mean absolute organ weight, Brain","male, 500 mg/kg, dosing period",1.74 g
same,"Mean absolute organ weight, Heart","male, 500 mg/kg, dosing period",1.31 g
same,"Mean absolute organ weight, Kidney","male, 500 mg/kg, dosing period",2.67 g
same,"Mean absolute organ weight, Liver","male, 500 mg/kg, dosing period",10.46 g
same,"Mean absolute organ weight, Lung","male, 500 mg/kg, dosing period",1.41 g
same,"Mean absolute organ weight, Pituitary","male, 500 mg/kg, dosing period",0.0119 g
same,"Mean absolute organ weight, Prostate","male, 500 mg/kg, dosing period",0.49 g
same,"Mean absolute organ weight, Spleen","male, 500 mg/kg, dosing period",0.69 g
same,"Mean absolute organ weight, Testis","male, 500 mg/kg, dosing period",3.32 g
same,"Mean relative organ weight, Adrenal","male, 500 mg/kg, dosing period",0.0171 g/100g body weight
same,"Mean relative organ weight, Brain","male, 500 mg/kg, dosing period",0.55 g/100g body weight
same,"Mean relative organ weight, Heart","male, 500 mg/kg, dosing period",0.36 g/100g body weight
same,"Mean relative organ weight, Kidney","male, 500 mg/kg, dosing period",0.74 g/100g body weight
same,"Mean relative organ weight, Liver","male, 500 mg/kg, dosing period",2.87 g/100g body weight
same,"Mean relative organ weight, Lung","male, 500 mg/kg, dosing period",0.39 g/100g body weight
same,"Mean relative organ weight, Pituitary","male, 500 mg/kg, dosing period",0.0033 g/100g body weight
same,"Mean relative organ weight, Prostate","male, 500 mg/kg, dosing period",0.14 g/100g body weight
same,"Mean relative organ weight, Spleen","male, 500 mg/kg, dosing period",0.19 g/100g body weight
same,"Mean relative organ weight, Testis","male, 500 mg/kg, dosing period",0.91 g/100g body weight
same,B.W. (mean),[5],366.0 g
same,"Mean absolute organ weight, Adrenal",[5],0.0630 g
same,"Mean absolute organ weight, Brain",[5],1.81 g
same,"Mean absolute organ weight, Heart",[5],1.33 g
same,"Mean absolute organ weight, Kidney",[5],2.63 g
same,"Mean absolute organ weight, Liver",[5],10.79 g
same,"Mean absolute organ weight, Lung",[5],1.45 g
same,"Mean absolute organ weight, Pituitary",[5],0.0113 g
same,"Mean absolute organ weight, Prostate",[5],0.45 g
same,"Mean absolute organ weight, Spleen",[5],0.74 g
same,"Mean absolute organ weight, Testis",[5],3.35 g
same,"Mean relative organ weight, Adrenal",[5],0.0172 g/100g body weight
same,"Mean relative organ weight, Brain",[5],0.54 g/100g body weight
same,"Mean relative organ weight, Heart",[5],0.37 g/100g body weight
same,"Mean relative organ weight, Kidney",[5],0.72 g/100g body weight
same,"Mean relative organ weight, Liver",[5],2.94 g/100g body weight
same,"Mean relative organ weight, Lung",[5],0.40 g/100g body weight
same,"Mean relative organ weight, Pituitary",[5],0.0031 g/100g body weight
same,"Mean relative organ weight, Prostate",[5],0.12 g/100g body weight
same,"Mean relative organ weight, Spleen",[5],0.20 g/100g body weight
same,"Mean relative organ weight, Testis",[5],0.92 g/100g body weight
same,B.W. (mean),[6],419.4 g
same,"Mean absolute organ weight, Adrenal",[6],0.0595 g
same,"Mean absolute organ weight, Heart",[6],1.36 g
same,"Mean absolute organ weight, Kidney",[6],2.73 g
same,"Mean absolute organ weight, Liver",[6],11.62 g
same,"Mean absolute organ weight, Lung",[6],1.61 g
same,"Mean absolute organ weight, Prostate",[6],0.59 g
same,"Mean absolute organ weight, Spleen",[6],0.72 g
same,"Mean absolute organ weight, Testis",[6],3.48 g
same,"Mean relative organ weight, Adrenal",[6],0.0140 g/100g body weight
same,"Mean relative organ weight, Brain",[6],0.48 g/100g body weight
same,"Mean relative organ weight, Heart",[6],0.33 g/100g body weight
same,"Mean relative organ weight, Kidney",[6],0.65 g/100g body weight
same,"Mean relative organ weight, Liver",[6],2.76 g/100g body weight
same,"Mean relative organ weight, Lung",[6],0.38 g/100g body weight
same,"Mean relative organ weight, Pituitary",[6],0.0028 g/100g body weight
same,"Mean relative organ weight, Prostate",[6],0.14 g/100g body weight
same,"Mean relative organ weight, Spleen",[6],0.17 g/100g body weight
same,"Mean relative organ weight, Testis",[6],0.83 g/100g body weight
same,organ weight/histopathological changes,"up to 1,500 mg/kg/day oral, 4 weeks",no organ weight/histopathological changes were observed
same,change in body weight compared to control group,[7],did not lead to a significant change
same,death or abnormal clinical symptoms,[7],did not cause death or abnormal clinical symptoms
